EP4494632A1, “LIPOPHILIC-BASED COMPOSITION” (Consejo Superior de Investigaciones Científicas (CSIC), priority 2023, dated 2025)
Where two headings read alike, the source gives them in different places.

Experiments:
[1] = BCS group; cited from earlier work
in vitro [2] = settings: for Permea. coeff., Kp / Cmax at 1 %: pig; for Cmax at 1 %: Conc. Max.
From the text: (§1) Furthermore, porcine skin permeation is studied. As mentioned in the introduction, the barrier structure of the skin differs greatly from that of the mucosae. In this sense, it will be evaluated whether the mucosae modified both by lipophilic compositions and by compositions that mimic the stratum corneum could have a barrier effect similar to that of the skin.
(§2) Next, the main physicochemical properties which are important in permeability through keratin tissues, such as the skin and mucosae, and the classification to which they belong are described in detail. […] Compounds to be evaluated, physicochemical properties, and classification.
(§3) As in the previous TEWL study, sublingual mucosa and porcine skin dermatomized to a thickness of 500-700 µm are used. Kinetic diffusion studies were performed using a vertical diffusion cell (Lara Spiral, Couternon, France (1.86 cm^2 and 3 ml). The receiver fluid (RF) used was PBS:EtOH (1:1). A water bath was set at 43°C to obtain a membrane surface temperature of 32 ± 1°C.
After 1 h, the TEWL is measured again (Table 3). Table 3. Application of the composition F-MI and evaluation of transepidermal water loss, from the skin, from porcine sublingual mucosa and from the same mucosa modified by applying composition F-MI before applying the drugs.
(§4) Subsequently, the drugs are deposited to determine their kinetics. To that end, 300 µl (infinite dose) of the 1% solution of the 4 drugs in methanol were applied to each Franz cell, in triplicate. Aliquots of 0.2 ml were collected at different times (30 min, 1 h, 2 h, 4 h). The active ingredients were diluted in suitable graduated flasks and filtered through a 0.22 µm nylon filter (Cameo, Sigma-Aldrich, St Louis, U. S.A.). They were then further analyzed with a high performance liquid chromatography diode array detector (HPLC-DAD).
(§5) The software used was OpenLab. […] The ICH guidelines were followed to obtain the calibration curve, the limit of quantification (LoQ), and the limit of detection (LoD). The HPLC-DAD analytical conditions and the method for the four active ingredients are described in detail in Table 4.
(§6) The equation is as follows (1): Qn = (Cn × Vc + ∑i = 1^(n−1) (Ci×Vs))/(A) [formula]
(§7) Wherein: Qn is the cumulative amount of active ingredient released at time n (µg/cm^2); Cn is the concentration of active ingredient in the sample (µg/ml); Vc is the volume of the vertical diffusion cell (7 ml); ∑i = 1^(n−1) Ci [formula] is the sum of the API concentrations (µg/ml) determined at sampling intervals 1 to n-1; Vs is the volume of the sample, and A is the surface area of the sample (1.77 cm^2).
(§8) Two parameters were used, Qn and % API release, to obtain graphs showing absorption and penetration kinetics (Y-axis). Time or its square root (√t) is indicated on the X-axis. […] This step allowed determining the best absorption model to represent the penetration kinetics of the API through the different membranes. The model was obtained with the non-linear regression software STATGRAPHICS plus 5 (Statgraphics Technologies, Inc., Virginia, U. S.A.), and the best equation was selected based on the highest correlation coefficient corrected by the number of degrees of freedom (R2 DoF). Once having defined the model, it was possible to calculate other parameters, such as the flow (J), permeability coefficient (Kp), delay time (TI), maximum concentration (Cmax), maximum time (tmax), and area under the curve (AUC). All results are expressed as mean ± standard deviation (SD).

in vitro [3] = assay: in vitro
From the text: as §1, §2, §3, §4, §5, §6, §7, §8

[4] = cited from earlier work
[5] = Kinetic permeation of biocides using vertical Franz diffusion cells
Procedure: as §3, §4, §6, §7, §8
(§9) Furthermore, porcine skin permeation is studied. As mentioned in the introduction, the barrier structure of the skin differs greatly from that of the mucosae.
(§10) The biocides evaluated were fungitrol (FUN), propiconazole (PRO), and permethrin (PER) dissolved in ethanol at a concentration of 1% for each active ingredient. […] Table 9. Biocides and their physicochemical properties.
(§11) Table 10. Conditions of the method which are used in HPLC/DAD analysis for fungitrol, propiconazole, and permethrin

[6] = as above; remark: listed apart in the source
Procedure: as §3, §4, §6, §7, §8, §9, §10, §11

[7] = sublingual mucosa with F-MI, 1% in ethanol
[8] = unmodified sublingual mucosa, 1% in ethanol
[9] = skin, 300 µl of 1% solution in methanol

| Compound | Group [1] | Area under the curve, AUC (in vitro [3]) | Flow, J (in vitro [3]; pig, 1 %) | Latency time, LT (in vitro [3]; pig, 1 %) | Flow, J ([5]; skin, 1% in ethanol) | Latency time, LT ([5]; skin, 1% in ethanol) | LogP (pH 7.4) ([4]; biocides, Table 9, PubChem) | Flow, J [6, 7] | Latency time, LT [6, 7] | Permea. coeff., Kp [6, 7] | Flow, J [6, 8] | Latency time, LT [6, 8] | further results |
| --- | --- | --- | --- | --- | --- | --- | --- | --- | --- | --- | --- | --- | --- |
| Cn1c(=O)c2c(ncn2C)n(C)c1=O [Caffeine (CAF), Caffeine] | 1 | 0.41±0.27 mg/cm^2 | 75.09±51.32 µg/cm^2/h | 0.65 ± 0.24 h |  |  |  |  |  |  |  |  | Permea. coeff., Kp (in vitro [2]): 34.55±6.56 10^-3cm/h; Permea. coeff., Kp (in vitro [2]; 1 h): 8.28±2.48 10^-3cm/h; Conc. Max., Cmax (in vitro [3]): 107.23±57.7 3 µg/ml; Permea. coeff., Kp (in vitro [3]; pig): 6.06±4.12 10^-3cm/h |
| C[C@@H]1C[C@H]2[C@@H]3CCC4=CC(=O)C=C[C@]4(C)[C@@]3(F)[C@@H](O)C[C@]2(C)[C@@]1(O)C(=O)CO [Dexamethasone (DEX), Dexamethasone] |  | 0.03±0.01 mg/cm^2 | 5,84±3,46 µg/cm^2/h | 0,62±0,16 h |  |  |  |  |  |  |  |  | Cmax at 1 % (in vitro [2]): 315 µg/mL; LogP (pH 7.4) ([4]; drugs, Table 2): 1.74; Cmax at 1 % (in vitro [3]; pig): 67400 ng/mL |
| CCCCNC(=O)OCC#CI [Fungitrol (FUN), 3-lodo-2-propynyl butylcarbamate] |  |  |  |  | 6.02±3.93 µg/cm^2/h | 0.70 ± 0.00 h | 2.4 | 5.59±1.32 µg/cm^2/h | 0.65 ± 0.08 h | 0.61±0.14 10^-3cm/h | 62.88±29.97 µg/cm^2/h | -0.34 ± 1.32 h | Permea. coeff., Kp ([5]; skin, 1% in ethanol): 1.00±0.40 10^-3cm/h; Permea. coeff., Kp [6, 8]: 6.80±3.26 10^-3cm/h |
| CC(C)Cc1ccc(C(C)C(=O)O)cc1 (centres unmarked) [Ibuprofen (IBU), Ibuprofen] | 2 | 0.10 ± 0.01 mg/cm^2 | 24.79 ± 2.75 µg/cm^2/h | -0.24 ± 0.19 h |  |  |  |  |  |  |  |  | Permea. coeff., Kp (in vitro [2]): 28.67±0.49 10^-3cm/h; Permea. coeff., Kp (in vitro [2]; 1 h): 41.18±4.09 10^-3cm/h; Cmax at 1 % (in vitro [2]): 341 ± 63.6 µg/mL; Cmax at 1 % (in vitro [3]; pig): 21900 ± 1980 ng/mL; Permea. coeff., Kp (in vitro [3]; pig): 2.05 ± 0.23 10^-3cm/h |
| CC[C@H](C)[C@H]1O[C@]2(CC[C@@H]1C)C[C@@H]1C[C@@H](C/C=C(\C)[C@@H](O[C@H]3C[C@H](OC)[C@@H](O[C@H]4C[C@H](OC)[C@@H](O)[C@H](C)O4)[C@H](C)O3)[C@@H](C)/C=C/C=C3\CO[C@@H]4[C@H](O)C(C)=C[C@@H](C(=O)O1)[C@]34O)O2 [Ivermectin (IVE), Ivermectin] | 4 |  |  |  |  |  |  |  |  |  |  |  | permeability through the unmodified mucosa compared to the skin (in vitro [2]): 20 times; Latency time, LT (in vitro [2]; sublingual mucosa with F-MI (70 µl deposited 1 h before), 1% solution in methanol): 0.28 ± 0.02 h; Flow, J (in vitro [2]; unmodified sublingual mucosa, 1% solution in methanol): 63.75±1.57 µg/cm^2/h; LogP (pH 7.4) ([4]; drugs, Table 2): 5.83; Flow, J (in vitro [3]; [9]): 3.13±0.86 µg/cm^2/h; Latency time, LT (in vitro [3]; [9]): 0.59 ± 0.28 h |
| CC1(C)C(C=C(Cl)Cl)C1C(=O)OCc1cccc(Oc2ccccc2)c1 (centres unmarked) [Permethrin (PER), Permethrin] |  |  |  |  | 2.93±0.23 µg/cm^2/h | -1.49 ± 0.66 h | 6.5 | 3.85±4.00 µg/cm^2/h | -0.28 ± 1.77 h | 0.26±0.27 10^-3cm/h | 58.67±45.51 µg/cm^2/h | -0.53 ± 1.14 h | Cmax at 1 % ([5]; pig): 9350 ± 110 ng/mL; Permea. coeff., Kp ([5]; pig): 0.20±0.015 10^-3cm/h; Cmax at 1 % ([6]; pig): 15700 ± 20300 ng/mL; Permea. coeff., Kp ([6]; pig): 4.02±3.12 10^-3cm/h |
| CCCC1COC(Cn2cncn2)(c2ccc(Cl)cc2Cl)O1 (centres unmarked) [Propiconazole (PRO), Propiconazole] |  |  |  |  | 2.26±1.48 µg/cm^2/h | 0.60 ± 0.015 h | 3.7 | 6.62±3.74 µg/cm^2/h | 1.66 ± 1.00 h | 0.70±0.39 10^-3cm/h | 63.92±44.92 µg/cm^2/h | -0.04 ± 1.68 h | Permea. coeff., Kp ([5]; pig): 0.24±0.16 10^-3cm/h; Permea. coeff., Kp [6, 8]: 6.80±4.78 10^-3cm/h |
